Reference: patent US10696692B2, “Amido-benzyl sulfone and sulfoxide derivates” (Forma TM, LLC, priority 2012, dated 2020)
Read-outs that look alike come from different tables or passages of the source.

Assays:
[1] = tested on: A2780 cells; experiment: Assay 2: In-Vitro Cell Proliferation Assay (A2780 cells, SRB readout, 72 hours); format: cell-based; details: A2780 cells, 72 hours, SRB, read-out: Cell Proliferation (IC50);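 also: viable cells counted via sulforhodamine B staining, absorbance at 570 nm, after 72 h exposure at 37 °C, DMSO 0.1% as control, media-only background subtracted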
[2] = target: NAMPT (Homo sapiens (Human), UniProt P43490); experiment: Assay 1: Biochemical Inhibition Assay (NAMPT enzymatic reaction, NMN quantified by mass spectrometry); details: read-out: Biochemical (IC50);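 also: recombinant His-tagged human NAMPT preincubated with compound 15 min, then reacted 30 min at rt with 1 µM NAM, 100 µM PRPP, 2.5 mM ATP, NMN product read by RapidFire MS, normalized to L-Cystathionine internal standard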
Sequence of NAMPT (P43490 whole entry): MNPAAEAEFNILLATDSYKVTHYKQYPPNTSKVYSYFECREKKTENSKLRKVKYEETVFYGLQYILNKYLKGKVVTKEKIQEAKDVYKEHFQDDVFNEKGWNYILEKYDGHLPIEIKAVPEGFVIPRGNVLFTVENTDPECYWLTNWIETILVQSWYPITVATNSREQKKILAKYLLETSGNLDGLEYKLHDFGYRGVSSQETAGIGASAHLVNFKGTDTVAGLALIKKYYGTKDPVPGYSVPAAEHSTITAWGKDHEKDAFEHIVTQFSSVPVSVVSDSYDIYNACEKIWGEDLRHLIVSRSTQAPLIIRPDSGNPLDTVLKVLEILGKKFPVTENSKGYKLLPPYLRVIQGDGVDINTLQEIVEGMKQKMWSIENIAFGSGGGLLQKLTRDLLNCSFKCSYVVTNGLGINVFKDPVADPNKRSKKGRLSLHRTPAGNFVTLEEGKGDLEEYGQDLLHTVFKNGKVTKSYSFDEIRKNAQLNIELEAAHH

| SMILES | IC50 ([1]; Homo sapiens, A2780, 72 h) [µM] | IC50 [2] [µM] | IC50 [1] [µM] |
| --- | --- | --- | --- |
| O=C(NCc1ccc(S(=O)(=O)C2CCNCC2)cc1)c1cc2ccncc2s1 [Example 204, N-[[4-(4-piperidylsulfonyl)phenyl]methyl]thieno[2,3-c] pyridine-2-carboxamide] | 0.137 | 0.066 |  |
| CC(C)(C)OC(=O)NCC12CC(CN1S(=O)(=O)c1ccc(CNC(=O)c3ccc4nccn4c3)cc1)C2 [Example 129, [2-(4-{[(Imidazo[1,2-a]pyridine-6-carbonyl)-amino]-methyl}-benzenesulfonyl)-2-aza-bicyclo[2.1.1]hex-1-ylmethyl]-carbamic acid tert-butyl ester] | 0.00875 | 0.034 |  |
| O=C(NCc1ccc(S(=O)(=O)C2CCN(S(=O)(=O)c3ccccc3)CC2)cc1)c1cnc2[nH]ncc2c1 [Example 352, N-[[4-[[1-(benzenesulfonyl)-4-piperidyl]sulfonyl]phenyl]methyl]-1H-pyrazolo[3,4-b]pyridine-5-carboxamide] | 0.0203 | 0.018 |  |
| O=C(NCc1ccc(S(=O)(=O)N2CCOC3CNCC32)cc1)c1ccc2nccn2c1 (stereo not drawn) [Example 335, N-[[4-(3,4a,5,6,7,7a-hexahydro-2H-pyrrolo[3,4-b][1,4]oxazin-4-ylsulfonyl)phenyl)methyl] imidazo[1,2-a]pyridine-6-carboxamide] |  | 0.965 | 2 |
| O=C(NCc1ccc(S(=O)(=O)N2CCC3(CCCN3)C2)cc1)c1ccc2nccn2c1 (stereo not drawn) [Example 255, N-[[4-(1,7-diazaspiro[4.4]nonan-7-sulfonyl)phenyl]methyl] imidazo[1,2-a]pyridine-6-carboxamide] | 0.0362 | 0.057 |  |
| CC(=O)N1CCC(S(=O)(=O)c2ccc(CNC(=O)c3cc4cnccc4[nH]3)cc2)CC1 [Example 113, 1H-Pyrrolo[3,2-c]pyridine-2-carboxylic acid 4-(1-acetyl-piperidine-4-sulfonyl)-benzylamide] | 0.0446 | 0.0642 |  |
| CC(=O)N1CCC(S(=O)(=O)c2ccc(CNC(=O)c3ccc4nccn4c3)cc2)CC1 [Example 171, Imidazo[1,2-a]pyridine-6-carboxylic acid 4-(1-acetyl-piperidine-4-sulfonyl)-benzylamide] | 0.0422 | 0.0398 |  |
| CS(=O)(=O)N1CCC(S(=O)(=O)c2ccc(CNC(=O)c3cnc4[nH]ncc4c3)cc2)C1 (stereo not drawn) [Example 354, N-[[4-(1-methylsulfonylpyrrolidin-3-yl)sulfonylphenyl]methyl]-1H-pyrazolo[3,4-b]pyridine-5-carboxamide] | 0.726 | 0.413 |  |
| CN(C)C(=O)C1CN(S(=O)(=O)c2ccc(CNC(=O)c3ccc4nccn4c3)cc2)C1 [Example 244, N-[[4-[3-(dimethylcarbamoyl)azetidin-1-yl]sulfonylphenyl]methyl] imidazo[1,2-a]pyridine-6-carboxamide] | 0.0144 | 0.0141 |  |
| O=C(NCc1ccc(S(=O)(=O)N2CCC(N3CCCC3)CC2)cc1)c1cc2ccncc2o1 [Example 157, Furo[2,3-c]pyridine-2-carboxylic acid 4-(4-pyrrolidin-1-yl-piperidine-1-sulfonyl)-benzylamide] | 0.0149 | 0.0179 |  |
| CC(C)CN1CCC([S+]([O-])c2ccc(CNC(=O)c3cnc4[nH]ncc4c3)cc2)CC1 (racemic) [Example 181, 1H-Pyrazolo[3,4-b]pyridine-5-carboxylic acid 4-(1-isobutyl-piperidine-4-sulfinyl)-benzylamide] | 0.023 | 0.13 |  |
| CC(C)(C)OC(=O)N1CCCCC12CCN(S(=O)(=O)c1ccc(CNC(=O)c3ccc4nccn4c3)cc1)C2 (stereo not drawn) [Example 243, tert-butyl 2-[4-[(imidazo[1,2-a]pyridine-6-carbonylamino)methyl]phenyl] sulfonyl-2,6-diazaspiro[4.5]decane-6-carboxylate] | 0.0433 | 0.0149 |  |
| CC(C)CN1CCN(S(=O)(=O)c2ccc(CNC(=O)c3ccc4nccn4c3)cc2)CC1 [Example 43, Imidazo[1,2-a]pyridine-6-carboxylic acid 4-(4-isobutyl-piperazine-1-sulfonyl)-benzylamide] | 0.0072 | 0.0216 |  |
| O=C(NCc1ccc(S(=O)(=O)N2CCC3(CCCN3)CC2)cc1)c1ccc2nccn2c1 [Example 321, N-[[4-(1,8-diazaspiro[4.5]decan-8-ylsulfonyl)phenyl]methyl] imidazo[1,2-a]pyridine-6-carboxamide] | 0.054 | 0.0651 |  |
| O=C(NCc1ccc(S(=O)(=O)N2CCCC(O)C2)cc1)c1ccc2nccn2c1 (racemic) [Example 19, Imidazo[1,2-a)pyridine-6-carboxylic acid 4-(3-hydroxy-piperidine-1-sulfonyl)-benzylamide] | 0.0253 | 0.0181 |  |
| CC(C)(C)OC(=O)N1CCCC12CCN(S(=O)(=O)c1ccc(CNC(=O)c3ccc4nccn4c3)cc1)CC2 [Example 125, 8-(4-{[(Imidazo[1,2-a]pyridine-6-carbonyl)-amino]-methyl}-benzenesulfonyl)-1,8-diaza-spiro[4.5]decane-1-carboxylic acid tert-butyl ester] | 0.00137 | 0.0112 |  |
| O=C(NCc1ccc(S(=O)(=O)[C@@H]2CCOC2)cc1)c1cc2ccncc2o1 [Example 232, N-[[4-[(3R)-tetrahydrofuran-3-yl]sulfonylphenyl]methyl]furo [2,3-c]pyridine-2-carboxamide] | 0.445 | 0.175 |  |
| O=C(NCc1ccc(S(=O)(=O)N2C[C@@H]3C[C@H]2CC3(F)F)cc1)c1ccc2nccn2c1 (racemic) [Example 141, cis-Imidazo[1,2-a]pyridine-6-carboxylic acid 4-(5,5-difluoro-2-aza-bicyclo[2.2.1]heptane-2-sulfonyl)-benzylamide] | 0.0095 | 0.0148 |  |
| O=C(NCc1ccc(S(=O)(=O)C2CCOCC2)cc1)c1cnc2nccn2c1 [Example 199, N-[(4-tetrahydropyran-4-ylsulfonylphenyl)methyl] imidazo[1,2-a]pyrimidine-6-carboxamide] | 0.185 | 0.00865 |  |
| O=C(NCc1ccc(S(=O)(=O)N2CCC[C@@H]2CO)cc1)c1ccc2nccn2c1 [Example 106, Imidazo[1,2-a]pyridine-6-carboxylic acid 4-((R)-2-hydroxymethyl-pyrrolidine-1-sulfonyl)-benzylamide] | 0.0577 | 0.0486 |  |
| O=C(NCc1ccc(S(=O)(=O)N2CC3(CCOCC3)C2)cc1)c1ccc2nccn2c1 [Example 218, N-[[4-(7-oxa-2-azaspiro[3.5]nonan-2-ylsulfonyl)phenyl]methyl] imidazo[1,2-a]pyridine-6-carboxamide] | 0.00345 | 0.0103 |  |
| CCCN1CCC([S+]([O-])c2ccc(CNC(=O)c3ccc4nccn4c3)cc2)CC1 (stereo not drawn) [Example 375, N-[[4-[(1-propyl-4-piperidyl)sulfinyl]phenyl]methyl)imidazo[1,2-a]pyridine-6-carboxamide] | 0.0245 | 0.0275 |  |
| O=C(NCc1ccc(S(=O)(=O)C2CCN(C3COC3)CC2)cc1)c1cnc2nccn2c1 [Example 251, N-[[4-[[1-(oxetan-3-yl)-4-piperidyl]sulfonyl]phenyl]methyl]imidazo[1,2-a] pyrimidine-6-carboxamide] |  | 0.00413 | 0.121 |
| CN1CCC2(CC1)CN(S(=O)(=O)c1ccc(CNC(=O)c3ccc4nccn4c3)cc1)C2 [Example 271, N-[[4-[(7-methyl-2,7-diazaspiro[3.5]nonan-2-yl)sulfonyl]phenyl]methyl] imidazo[1,2-a]pyridine-6-carboxamide] | 0.0121 | 0.0275 |  |
